Data reported in the NIST ThermoML archive (doi:10.1021/acs.jced.8b01165).
Numbers after ± are expanded uncertainties.

Tests used:
[1] = Molar enthalpy of transition or fusion; settings: Crystal; DSC
[2] = Crystal; DSC

## C=C(C)C1Cc2c(ccc3c2OC2COc4cc(OC)c(OC)cc4C2C3=O)O1 (configuration not stated)
[1]
  Molar enthalpy of transition or fusion: 6.8 ± 0.203 kcal/mol
[2]
  Triple point temperature: 435.89 ± 1 K
